Assay results as given in patent publication US11084836B2, “Compositions useful in therapy of autophagy-related pathologies, and methods of making and using the same” (The University of Toledo, priority 2016, dated 2021).
Entries after “also recorded” stand apart in the source; their conditions may differ. Each block holds one compound with its values, some of them ahead of it.

How the values were obtained:
RG2 glioma cells [1] = experiment: Autophagic flux assay: LC3-I to LC3-II conversion in the presence of bafilomycin-A1, western blot; assay type: cell-based, rat; details: for stimulation of autophagy / autophagic flux (LC3-II increase in presence of bafilomycin-A1): 4 h, 50 nM bafilomycin-A1; for potency of autophagy stimulation relative to LKE (ratio of LC3-II band densities): western blot densitometry
Procedure: In the assay, cells are treated with subtoxic concentrations of bafilomycin-A, which blocks lysosomal acidification. This prevents autophagosome fusion with lysosomes at a specific point. […] Then, autophagy flux is measured by the conjugation of phosphatidylethanolamine to LC3-I, yielding an electrophoretically separable LC3-II. LC3-II acts as a link between nascent autophagosomes and cargo being directed into these structures. The autophagy intermediate protein LC3-II (a phosphatidylethanolamine-conjugated form of LC3-I) is measured by western blot. An autophagy enhancer will increase LC3-II in the presence of bafilomycin, whereas a compound that inhibits autophagy completion will not do so. Thus, the LC3A-I to LC3A-II conversion in the presence of bafilomycin-A1 constitutes a valid measure of autophagy.
Autophagy is a complex process involving many different protein components, but predominant amongst its regulatory elements are the mammalian target of rapamycin complex-1 (mTORC1) and unc-51-like kinase-1 (ULK1, FIG. 14). mTORC1 is itself a kinase that inhibits ULK1. When nutrients and cell energy are limiting, mTORC1 is suppressed by the coordinated actions of tuberous sclerosis complex (TSC) proteins 1 and 2 (TSC1/2) and Rheb (Ras homolog enriched in the brain). This allows disinhibition of ULK1, which then associates with beclin-1 protein to form pre-autophagosomal structures. Autophagosomes mature in a process marked by phosphatidylethanolamine conjugation to microtubule associated protein 1 light chain 3 (LC3-I→LC3-II conversion). After lysosomal fusion, the autophagy components are turned over and the cycle completes. One of the most reliable ways to determine whether a treatment increases true autophagy flux is to measure LC3-I to LC3-II conversion in the absence and presence of the vacuolar ATPase inhibitor bafilomycin-A1. Bafilomycin neutralizes lysosomal pH, preventing autophagosome-lysosomal fusion, and traps LC3-II at a point prior to its turnover in mature autophagolysosomes.
The cells were then incubated for an additional 4 h. At termination, the cell culture medium was removed, cells were washed with PBS and lysed on ice in Pierce RIPA buffer containing protease and phosphatase inhibitors.
An increase in the intensity of this band in the presence of bafilomycin-A1 indicates increased autophagic flux.
RG2 glioma cells (American Tissue Type Collection, ATTC, Rockville Md. USA) were treated for 4 h with 50 nM bafilomycin-A1 (previously dissolved to 1000× final concentration in dimethylsulfoxide). Thirty minutes after addition of bafilomycin, cells were treated with test agents at 100× final concentration. Cells were lysed in RIPA buffer containing protease and phosphatase inhibitors. Protein concentration was assayed and normalized to constant values (typically 5-7 mg/mL). Proteins were electrophoresed across 4-20% polyacrylamide gels and wet blotted onto polyvinylidine difluoride (PVDF) membranes. Proteins were blotted with commercially available antibodies against LC3.

[2] = Stability of the isolated solid under high vacuum; assay type: physicochemical; details: isolated white solid, at least overnight
Procedure: FIGS. 15A-15B show the ^1H NMR spectrum of 2-butyl-LK-P, with and without peak assignments. FIGS. 16A-16B show the ^1H NMR spectrum of 2-butyl-LK-P, with integration values and with and without peak assignments. ^1H NMR (CDCl3) δ 3.96 (br. s., 1H), 3.05 (d, J=12.4 Hz, 1H), 2.84-2.66 (m, 1H), 2.36 (br. s., 2H), 1.56-1.32 (m, 2H), 1.24 (d, J=6.2 Hz, 2H), 0.89-0.77 (m, 3H); HRMS (ESI) m/z calcd for C9H17NO5PS [M+H]^+ 282.0565, found 282.0645.
Briefly, to a solution of DEIVP (500.0 mg, 2.222 mmol), in a biotage microwave vial, was added bromotrimethylsilane (1.333 mL, […]). The tube was purged with argon, covered and heated at 400 W for 10 min. The contents of the vial were transferred to a round bottom flask, the vial was washed with dichloromethane (3×3 mL) which was transferred to the flask. The solvent and excess bromotrimethylsilane were removed in vacuo. To the flask was added dichloromethane (10 mL), which was subsequently removed in vacuo to aid in the removal of any residual bromotrimethylsilane. To the flask was added dichloromethane (9 mL) and, to this solution, with stirring, was added a solution of bromine ([…]) in dichloromethane (3 mL). The resultant solution was heated to reflux for 15 min and the solvent was removed in vacuo. […]

EOC-20 microglia = experiment: TNFα-stimulated microglial M1 activation, nitrite accumulation in culture medium; assay type: cell-based; details: cytokine (TNFα)-stimulated EOC-20 microglia, side-by-side
Procedure: Reaction completion was monitored by thin-layer chromatography and product identity was confirmed by mass spectrometry (FIG. 31A). […] M1 activation of EOC-20 cells was assessed by measuring TNFα-stimulated nitrite production.

RG2 glioma cells [3] = experiment: Proliferative capacity of glioma cells, tetrazolium reduction assay; assay type: cell-based, rat
Procedure: FIG. 37: Graph showing a reduction in proliferative capacity of RG2 glioma cells exposed to 2-n-hexyl-LKE-P. Glioma cells were plated at low density and treated with the indicated concentration of compound for 24 or 48 h, at which time relative cell number was estimated using a tetrazolium reduction assay.
Biomarkers of autophagy have been positively correlated with relatively better prognosis (longer patient lifespan) in humans suffering from high grade glioma. Accordingly, phosphonate analogs were tested for ability to reduce replicative capacity in RG2 glioma cells wherein the compounds increase autophagy. Cells were plated at low density (approximately 25,000 cells/[…]) using general cell culture methods, and treated with logarithmic dilutions of test agent. After 24 or 48 hours, cell number was estimated by a tetrazolium reduction assay using a commercially available kit (Promega Aqueous OneStep™). […] By 48 h the cells had largely achieved confluence and became somewhat contact inhibited, thus reducing the difference between control and treatment groups.

SHSY5Y neurons = details: cited from earlier work
[4] = measurement of brain LKE levels and animal studies
neurons = details: glutamate toxicity; cited from earlier work
ULK1 system = experiment: ULK1 / ULK1(p757) autophagy stimulation assay (mTOR pathway), western blot; assay type: cell-based, rat; details: RG2 cells, 24 h; read-out: EC50 on the ULK1 system (ULK1 increase and ULK1(p757) decrease)
Source text: This technique has been documented in the literature for use in the comparison of the potency of individual compounds, relative to a recognized standard, and this technique has become a standard method of autophagy analysis. In addition to quantitating the stimulation of autophagy for the compounds, relative to LKE, because it is cell based, this assay also provides evidence that the compounds can permeate cell membranes. This affords valuable information for the comparison of individual compounds to stimulate autophagy, and will allow them to be ranked for use in the determination of a structure activity relationship (SAR). […] For validation purposes, a second, quantitative autophagy stimulation assay was utilized. […] This second assay provides validation for the LC3 assay.
Western Blotting: The proteins were electrophoresed and wet-blotted to polyvinylidine difluoride membranes, blocked overnight in 4% bovine serum albumin, and developed using antibodies obtained from Cell Signaling Technology (LC3A: cat #. 4599; ULK1: cat #. 8054, ULK1(p757): cat #. 6880).

cells = details: H2O2 or t-butyl hydroperoxide; cited from earlier work
[5] = test system: permanent middle cerebral artery occlusion (pMCAO); details: after pMCAO; cited from earlier work
[6] = cell systems and C. elegans; cited from earlier work
C6 glioma tumor = details: C6 glioma xenograft into rat cortices; cited from earlier work
[7] = test system: SOD1^G93A mouse model of amyotrophic lateral sclerosis; details: cited from earlier work
CRMP2 = details: CRMP2-dependent fashion; cited from earlier work
microglia = details: cell systems; cited from earlier work
[8] = test system: 3×Tg-AD mouse model of Alzheimer's disease; details: cited from earlier work

SMILES: CCCCC1=C(P(=O)(O)O)N[C@H](C(=O)O)CS1
- stimulation of autophagy / autophagic flux (LC3-II increase in presence of bafilomycin-A1) (RG2 glioma cells [1]): enter into cells and stimulate autophagy to varying degrees
- potency of autophagy stimulation relative to LKE (ratio of LC3-II band densities) (RG2 glioma cells [1]): comparable activity
- potency of autophagy stimulation relative to LKE (ratio of LC3-II band densities) (RG2 glioma cells [1]; listed as 2-butyl-LK-P): more effective at inducing autophagic flux than, inter alia, LK-E
- stability to high vacuum pressures [2]: stable to high vacuum pressures at least overnight without visual or spectral decomposition

SMILES: CCOC(=O)[C@@H]1CSC(C(C)N2CCCC2=O)=C(C(=O)O)N1 (single isomer, unassigned) [NVP-LKE]
- suppression of nitric oxide (nitrite) production / microglial activation relative to LKE (EOC-20 microglia): maintains or gains potency over LKE; also recorded: equal or superior to LKE; also recorded: as potent or more potent than LKE
- stimulation of autophagy / autophagic flux (LC3-II increase in presence of bafilomycin-A1) (RG2 glioma cells [1]): stimulates autophagy in RG2 cells
- potency of autophagy stimulation relative to LKE (ratio of LC3-II band densities) (RG2 glioma cells [1]): better autophagy activation than LKE; also recorded: more potent autophagy stimulator than LKE

SMILES: CC(C)C1=C(P(=O)(O)O)NCCS1 [2-isopropyl AECK-P, AminoEthyl Cysteine Ketimine-Phosphonate]
- stimulation of autophagy / autophagic flux (LC3-II increase in presence of bafilomycin-A1) (RG2 glioma cells [1]): can enter cells to elicit a response
- potency of autophagy stimulation relative to LKE (ratio of LC3-II band densities) (RG2 glioma cells [1]): comparable activity

SMILES: CC(C)C1=C(P(=O)(O)O)N[C@H](C(=O)O)CS1 [2-isopropyl-LK-P, 2-isopropyl lanthionine ketimine phosphonate]
- stimulation of autophagy / autophagic flux (LC3-II increase in presence of bafilomycin-A1) (RG2 glioma cells [1]): stimulates autophagy in RG2 cells at low micromolar concentrations; also recorded: enter into cells and stimulate autophagy to varying degrees; also recorded: increase autophagic flux
- potency on autophagic flux relative to LK (RG2 glioma cells [1]; at 10 μM): clearly more potent at 10 μM than LK was
- potency on autophagic flux relative to LK (RG2 glioma cells [1]; at 10 mM (FIG. 6 legend)): clearly was more potent at 10 mM than was LK
- potency of autophagy stimulation relative to LK (RG2 glioma cells [1]; visual inspection of western blot): much more potent stimulator of autophagy than LK
- potency of autophagy stimulation relative to LKE (ratio of LC3-II band densities) (RG2 glioma cells [1]): comparable activity
- stability to high vacuum pressures [2]: stable to high vacuum pressures at least overnight without visual or spectral decomposition

SMILES: CCCCCCC1=C(P(=O)(O)O)N[C@H](C(=O)OCC)CS1 [2-n-hexyl-LKE-P]
- cell number (RG2 glioma cells [3]; 48 h): dose-dependent reduction in the cell number
- replication of cultures (RG2 glioma cells [3]; first 24 h): replicated more slowly

SMILES: O=C(O)C1=CSC[C@@H](C(=O)O)N1 [LK, (5R)-3,5,-dicarboxy-1-thia-4-aza-2-cyclohexene, reference compound]
- stimulation of autophagy / autophagic flux (LC3-II increase in presence of bafilomycin-A1) (RG2 glioma cells [1]): increase autophagic flux

- βββ penetrability [4]: good βββ penetrability
- EC50 (ULK1 system): ~50 nM
SMILES: CCOC(=O)C1CSC=C(C(=O)O)N1 (stereo not shown) [LKE, lanthionine ketimine-ethyl ester]
- amyloid reducing activity (SHSY5Y neurons): decreasing production of native Aβ(1-40)
- anti-excitotoxin activity (neurons): protecting neurons from glutamate toxicity
- antioxidant activity (cells): protecting cells against H2O2 or t-butyl hydroperoxide
- stimulation of autophagy / autophagic flux (LC3-II increase in presence of bafilomycin-A1) (RG2 glioma cells [1]): enter into cells and stimulate autophagy to varying degrees
- infarct volume and functional recovery [5]: decreases infarct volume and improves functional recovery
- axonal transport enhancement [6]: potentiating anterograde trafficking and delivery of synaptic proteins to the distal axon
- tumor growth (C6 glioma tumor): slows growth of C6 glioma tumor
- lifespan and motor function [7]: increases lifespan and slows decline of motor function
- neurotrophic activity (CRMP2): potentiating growth factor-dependent neurite growth
- anti-neuroinflammatory activity (microglia): decreasing microglial response to inflammatory cytokines
- amyloid burden, phospho-tau, microglial activation, cognitive decline [8]: decreases amyloid burden inside neurons and in plaques, decreases phospho-tau accumulation, decreases microglial activation, and slows cognitive decline
